Test results from paper PMC11536634, “Discovering a novel dual specificity tyrosine-phosphorylation-regulated kinase 1A (DYRK1A) inhibitor and its impact on tau phosphorylation and amyloid-β formation” (Journal of Enzyme Inhibition and Medicinal Chemistry, 2024).

Legend:
Format in all cases: biochemical
[1] = target: fibroblast growth factor receptor 1 (FGFR1) (Homo sapiens, UniProt P11362); assay: kinase panel ([…] human kinases), […] inhibition at […]
[2] = target: cyclin-dependent kinase 2 (CDK2) (Homo sapiens, UniProt P24941); assay: kinase panel ([…] human kinases), […] inhibition at […]
CDC-like kinase 2 (CLK2) = CDC-like kinase 2 (CLK2) (Homo sapiens, UniProt P49760); assay: kinase panel ([…] human kinases), […] inhibition at […]
DYRK1A = DYRK1A (Homo sapiens, UniProt Q13627); assay: cell-free Z'-LYTE FRET kinase assay, dose-response; ATP competition

CDC-like kinase 2 (CLK2), sequence (P49760 whole entry): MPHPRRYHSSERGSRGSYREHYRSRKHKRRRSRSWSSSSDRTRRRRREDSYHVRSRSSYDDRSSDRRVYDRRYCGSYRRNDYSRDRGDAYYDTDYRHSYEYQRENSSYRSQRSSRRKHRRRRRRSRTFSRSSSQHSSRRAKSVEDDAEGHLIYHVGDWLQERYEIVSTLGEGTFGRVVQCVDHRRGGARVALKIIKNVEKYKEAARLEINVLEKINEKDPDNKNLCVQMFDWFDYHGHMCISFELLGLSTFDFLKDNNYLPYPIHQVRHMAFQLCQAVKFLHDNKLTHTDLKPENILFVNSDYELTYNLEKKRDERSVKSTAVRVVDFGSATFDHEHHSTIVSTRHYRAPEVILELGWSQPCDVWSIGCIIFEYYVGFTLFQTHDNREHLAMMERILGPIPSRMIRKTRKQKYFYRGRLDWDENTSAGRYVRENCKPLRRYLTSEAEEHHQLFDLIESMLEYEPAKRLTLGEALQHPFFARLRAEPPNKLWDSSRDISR
fibroblast growth factor receptor 1 (FGFR1), sequence (P11362 22-822): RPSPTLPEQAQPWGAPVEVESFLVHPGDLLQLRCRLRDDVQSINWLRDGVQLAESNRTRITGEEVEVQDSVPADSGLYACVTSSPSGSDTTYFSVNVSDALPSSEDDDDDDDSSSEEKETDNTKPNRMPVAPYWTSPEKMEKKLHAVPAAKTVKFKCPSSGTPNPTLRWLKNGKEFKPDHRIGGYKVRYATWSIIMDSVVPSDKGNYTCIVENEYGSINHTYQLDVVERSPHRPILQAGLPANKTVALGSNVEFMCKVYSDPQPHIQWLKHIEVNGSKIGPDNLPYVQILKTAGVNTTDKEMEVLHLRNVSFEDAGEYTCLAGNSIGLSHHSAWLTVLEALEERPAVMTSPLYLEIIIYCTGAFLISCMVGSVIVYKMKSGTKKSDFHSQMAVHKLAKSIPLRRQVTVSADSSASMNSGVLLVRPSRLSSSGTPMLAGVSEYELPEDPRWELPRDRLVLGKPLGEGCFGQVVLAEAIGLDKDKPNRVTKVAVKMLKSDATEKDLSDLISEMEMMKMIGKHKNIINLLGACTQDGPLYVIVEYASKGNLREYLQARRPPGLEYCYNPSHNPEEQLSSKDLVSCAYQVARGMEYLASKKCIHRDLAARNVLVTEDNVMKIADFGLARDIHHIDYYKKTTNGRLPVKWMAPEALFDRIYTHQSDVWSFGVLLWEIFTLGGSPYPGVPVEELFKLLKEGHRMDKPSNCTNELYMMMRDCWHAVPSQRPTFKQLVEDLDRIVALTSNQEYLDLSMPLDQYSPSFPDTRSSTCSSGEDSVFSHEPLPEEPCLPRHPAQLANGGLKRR

SMILES: O=C1CC(c2c[nH]c3nccnc23)NN1 (stereo not shown) [compound 217908, NSC217908]
- % inhibition at 3 μM [1]: 69
- % inhibition at 3 μM [2]: 54
- % inhibition at 3 μM (CDC-like kinase 2 (CLK2)): 89
- IC50 (DYRK1A): 949 nM
